Source: US20150031739A1, “PANOBINOSTAT FOR USE IN THE TREATMENT OF HIV-1” (Aarhus Universitet, priority 2012, published 2015)

Legend:
[1] = test system: CD69 expression in CD4+ T-cells; experiment: Activation of primary T lymphocytes (CD69 expression, flow cytometry); format: cell-based, human; details: 16 hours
Method: Expression of the early activation marker CD69 was assessed by flow cytometry in 8 separate experiments with data from one representative experiment shown in figure.
Activation of primary T lymphocytes: PBMC's are purified using Ficoll Paque gradient centrifugation from fresh blood obtained from healthy donors. 5*10^5 cells are stimulated by different concentrations of HDACi in final volume of 500 uL RPMI media supplemented with 10% heat inactivated Foetal Bovine Serum and 1% penicillin/streptomycin. After 16 hours cells are harvested and washed once in PBS. Cells are stained with Live-dead near IR at a final concentration of 2 uM (Invitrogen, Denmark) for 30 min on ice. Cells are washed twice in PBS. Five uL Fc Block (Sigma, Denmark) at 10 mg/mL is added and cells are incubated 10 min on ice. Cells are subsequently stained with 5 uL CD4 PerCPCy5.5, 5 uL CD27 PE-Cy7, 7 uL CD45RA FITC, 20 uL CCR7 PE all (BD, USA) and 10 uL CD69 APC (BioLegend, USA) for 30 min on ice. Lastly, cells are washed once in PBS and resuspended in FACS flow buffer and stored on ice until analysis by flow cytometry.

[2] = 20 mg oral; cited from earlier work
[3] = test system: cell-associated unspliced HIV RNA; experiment: Cell associated unspliced Gag HIV RNA in CD4+ T cells of treated patients; format: in vivo, HIV-1
Method: RNA purified from 1 million CD4+ T cells was treated with DNAse and split in 4 portions. Preparation of cDNA was performed by Superscript III Reverse Transcriptase as described by the manufacturer using both Oligo dT and random hexamer priming (Life Technologies, DK). Each cDNA sample was assayed in duplicate in a semi-nested real-time PCR quantification yielding eight replicates for each patient sample.
First round amplification was carried out with primers 5′-[…]-3′ (SEQ ID NO: 1) and 5′-[…]-3′ (SEQ ID NO: 2) with AmpliTaq gold mastermix (Life Technologies, DK) for a limited 15 cycles and input of 5 uL cDNA.
PCR conditions were as follows: A denaturation step at 95° C. for 10 minutes followed by 15 cycles of 20 seconds at 94° C., 40 seconds at 55° C. and 40 seconds at 72° C. Second round real-time PCR was performed using SYBR green mastermix (Life Technologies, DK) and primers 5′-[…]-3′ (SEQ ID NO: 3) and 5′-[…]-3′ (SEQ ID NO: 4) on a Bio-Rad CFX96™ Real-time PCR Platform. PCR conditions were as follows: A denaturation step at 95° C. for 10 minutes followed by 45 cycles of 20 seconds at 94° C., 40 seconds at 55° C., 40 seconds at 72° C. Subsequently, a dissociation curve was obtained by heating from 65° C. to 95° C. with a 0.5° C. increment for 5 seconds. A serial diluted standard allow for relative quantification of HIV Gag RNA levels.

histone H3 acetylation = experiment: Histone H3 acetylation in PBMC's of patients during panobinostat administration; format: in vivo, human
Method: One million freshly isolated PBMC's harvested from CPT vacutainers (BD Bioscience, UK) were washed in ice-cold PBS with 1% FBS. Subsequently cells were fixed in 200 uL 1% paraformaldehyde for 15 min on ice and afterwards washed in PBS. […] Following a wash in FACS buffer (PBS/2% FBS), cells were blocked in PBS with 10% FBS for 20 min at RT. For each patient one sample was incubated for 1 hr at RT with either 5 uL primary anti-acetyl histone H3 antibody (Millipore, DK) or 5μ isotype control (final antibody concentration: 10 μg/m). Subsequently, cells were washed in FACS buffer and incubated with 5 uL secondary (Alexa-Flour 488 donkey anti-rabbit IgG from Life Technologies, DK) for 1 hr in the dark at RT (final antibody concentration: 6 μg/m). Lastly, cells were washed in FACS buffer, resuspended in PBS and analyzed on a FACS Canto II.

Cytotoxicity of LBH589 = format: cell-based; details: up to 30 nM

SMILES: Cc1[nH]c2ccccc2c1CCNCc1ccc(/C=C/C(=O)NO)cc1 [LBH589, N-Hydroxy-3-[4-[2-(2-methyl-1H-indol-3-yl)ethylaminomethyl]phenyl]-2(E)-propenamide]
- concentration at which induction of CD69 expression occurred, compared with other HDACi ([1]; CD4+ T-cells): much lower concentrations of LBH589 than ITF2357, PXD101, and SAHA
- proportion of primary T-cells expressing the early activation marker CD69 ([1]; PBMCs from healthy donors, increasing concentrations (2-31 nM), compared to untreated cells): increased
- CD69 expression in memory T-cell subsets ([1]; central memory T-cells): highest levels
- maximal plasma concentration [2]: approximately 60 nM
- cell-associated unspliced Gag HIV RNA ([3]; patient A, first off/on cycle analyzed, off treatment): 178 Gag HIV RNA copies
- cell-associated unspliced Gag HIV RNA ([3]; patient A, first off/on cycle analyzed, on treatment): 323 Gag HIV RNA copies
- cell-associated unspliced Gag HIV RNA ([3]; patient A, second off/on cycle analyzed, off treatment): 57 Gag HIV RNA copies
- cell-associated unspliced Gag HIV RNA ([3]; patient A, second off/on cycle analyzed, on treatment): 362 Gag HIV RNA copies
- cell-associated unspliced Gag HIV RNA ([3]; patient B, first off/on cycle analyzed, off treatment): 504 Gag HIV RNA copies
- cell-associated unspliced Gag HIV RNA ([3]; patient B, first off/on cycle analyzed, on treatment): 841 Gag HIV RNA copies
- cell-associated unspliced Gag HIV RNA ([3]; patient B, second off/on cycle analyzed, off treatment): 892 Gag HIV RNA copies
- cell-associated unspliced Gag HIV RNA ([3]; patient B, second off/on cycle analyzed, on treatment): 1196 Gag HIV RNA copies
- average increase of histone H3 acetylation from baseline (histone H3 acetylation; day 4, eight patients, PBMC's, panobinostat 20 mg TIW every other week): 267%
- levels of histone acetylation (histone H3 acetylation; off-treatment weeks): dropped to near baseline levels
- cytotoxicity (Cytotoxicity of LBH589): No cytotoxicity above background
